We go through 118 sequences from the OligoGym collection.

These antisense oligonucleotides have a phosphorothioate backbone; sugars and methylation of C are not fully specified. Some results are limits rather than exact numbers.
Also: test concentration or dose not given here.

In the first data set the target is ETS2. Particulars: ASO.
AACCCGTTGCACATCCAG: the remaining target (mRNA or protein) (fraction of control) was not below 1.
AATAGTCTGTGTGTGTCC returned a remaining target (mRNA or protein) (fraction of control) not below 1.
In turn, AGCTGTCCGCACCGTTCT returned a remaining target (mRNA or protein) (fraction of control) not below 1.
On the same count and under the same terms, as for AGGAGCGGGAGGAGGAGG, the figure is 0.87; as for ATCCGTCTCCAGTCCAGC, 0.8.
Same read-out and setting: to CAAGTTGCTGCCTGGGAA belongs 0.39; to CACAGTTGGCGGAGTCAT, 0.45.
As for CAGCTCCAGGAGAAACTG, the remaining target (mRNA or protein) (fraction of control) was not below 1.
CATGGTTGTTTCCTTCCC had a remaining target (mRNA or protein) (fraction of control) not below 1.
In the case of CATTCATGCCGAACCTCT, the remaining target (mRNA or protein) (fraction of control) is not below 1.
On the same count and under the same terms, as for CCAGAGACGATCAGGGAG, the figure is not below 1.
Turning to CCGACGTCTTGTGGATGA, the remaining target (mRNA or protein) (fraction of control) was found to be 0.45.
The same measure, in the same setting: to CGGCGCTTGGTCGGGACG belongs not below 1; to CGTCCCACGGACTGCCAG, not below 1; to CTGCCTTTCCTGGGTCCT, not below 1.
With CTTAAAAGCACTGTGAGT, the remaining target (mRNA or protein) (fraction of control) amounted to 0.63.
Same read-out and setting: to GAAGCCACTGGCATACCT belongs 0.64; to GAGGCAGCCTGGTCAAGA, 0.61; to GCAGGTATAACTGGTTTG, not below 1.
Sequence GCGTGCAGTTCCTCGGGC displayed a remaining target (mRNA or protein) (fraction of control) of 0.81.
GGAACGGAGGTGAGGTGT gave a remaining target (mRNA or protein) (fraction of control) of 0.61.
Still for that read-out and setting: as for GGACGGCCGAGTGGAGGG, the figure is 0.81; as for GGAGCTGAGCCGAGACTT, 0.51; as for GGCCACTTTCCTGGACAT, not below 1.
The same measure, in the same setting: to GGCCGGCTCAGGGTGGTC belongs 0.51; to GGCTGGCGCTTGAGTGTC, 0.7.
The same measure, in the same setting: to GGGACCCATCAAAGGTGT belongs 0.66.
In turn, GGGTAATTCTGTGTCTGC showed a remaining target (mRNA or protein) (fraction of control) of 0.96.
The same measure, in the same setting: as for GGGTCACTCCTCTCTTGG, the figure is 0.75; as for GTCCATATTCTTGATTCC, not below 1; as for GTGCCAAAACCTAATGTA, 0.66.
TAAGGCTTGACTCATCAC: the remaining target (mRNA or protein) (fraction of control) is not below 1.
The sequence TCGTAATAGTAGCGTAAG gave a remaining target (mRNA or protein) (fraction of control) of 0.85.
Still for that read-out and setting: to TGCCAGCTCCAGAAAGCG belongs 0.84; to TGGCTTATTGAGGCAGAG, 0.94; to TGTTCCCAGAGAATGTCA, 0.63.
With TTCTTTGGAATGCCCAGG, the remaining target (mRNA or protein) (fraction of control) worked out at 0.93.
On the same count and under the same terms, as for TTGCAGTGTTTGCTCTTC, the figure is not below 1; as for TTTCCTCTTTCCCCACCG, not below 1.
With TTTCTTGGTTTTCTTTGA, the remaining target (mRNA or protein) (fraction of control) is not below 1.

The next data set concerns the target GNAI1. Particulars: ASO.
In the case of CAAAGCCATCACCCTAAA, the remaining target (mRNA or protein) (fraction of control) came to 0.43.
For the sequence CAAGTCATTCAAATAGTA, the remaining target (mRNA or protein) (fraction of control) was not below 1.
Same read-out and setting: as for CAATTCCTGTAGTTTTCA, the figure is 0.8.
CACATTCTTAGTATCTGT gave a remaining target (mRNA or protein) (fraction of control) of 0.85.
On the same count and under the same terms, as for CATGAACATAAATAAAGC, the figure is not below 1.
Regarding CCACTATCTTTCCACAAT, the remaining target (mRNA or protein) (fraction of control) came to 0.84.
Still for that read-out and setting: as for CCGGGCTGAGTCACCAAA, the figure is 0.31; as for CCTTCTGTTACTTTCAGT, 0.75.
In turn, CTCCTCTTCTGAATAACC returned a remaining target (mRNA or protein) (fraction of control) of 0.79.
In the case of CTTTTACCAGATTCACCA, the remaining target (mRNA or protein) (fraction of control) came out at 0.96.
As for GCATTCGGTTCATTTCTT, the remaining target (mRNA or protein) (fraction of control) came to 0.58.
For the sequence GTATAATGGATGTATCTG, the remaining target (mRNA or protein) (fraction of control) amounted to 0.86.
Still for that read-out and setting: to GTTGAGTCGGGATGTAAT belongs not below 1.
The same measure, in the same setting: to TAAAAGAGACCACAATCT belongs 0.81.
Still for that read-out and setting: as for TAATAGTCTGTCATTCAG, the figure is 0.95; as for TAGATAAGGGCTGTAATG, 0.87.
On to TCACCAAAGTCTATCTTC, for which the remaining target (mRNA or protein) (fraction of control) is not below 1.
TCACCCTAAAATCCTAAG: the remaining target (mRNA or protein) (fraction of control) is not below 1.
Turning to TCATCTTACTCCGCTCCA, the remaining target (mRNA or protein) (fraction of control) came out at 0.66.
TCATTTCTTCATCTTCAG showed a remaining target (mRNA or protein) (fraction of control) not below 1.
The sequence TCCCCATAGCCCTAATGA yielded a remaining target (mRNA or protein) (fraction of control) of 0.21.
The same measure, in the same setting: to TCTTTTATTGAGGTCTTC belongs not below 1.
On the same count and under the same terms, as for TGATCCAAAGGCAGGTGT, the figure is 0.27.
TGTGTCCTTTCTTTTATT registered a remaining target (mRNA or protein) (fraction of control) of 0.63.
For the sequence TTAAGAACATTTCAATAA, the remaining target (mRNA or protein) (fraction of control) was 0.99.
TTATGTTATTTCCAAAGC had a remaining target (mRNA or protein) (fraction of control) of 0.87.
As to TTCAACCTCCCCATAGCC, the remaining target (mRNA or protein) (fraction of control) was 0.81.
On the same count and under the same terms, as for TTCTGTCCAAGTCATTCA, the figure is 0.64; as for TTTCCACAATCTCTTTAT, 0.92.
Sequence TTTGAAAGTAAAATGGGT gave a remaining target (mRNA or protein) (fraction of control) not below 1.

For another data set, the target named is GNAI3. To be noted: ASO.
On to AAATGTGTTTCTACAATG, for which the remaining target (mRNA or protein) (fraction of control) came to 0.9.
Still for that read-out and setting: to AAGGTGTCTGGTCTCAAC belongs 0.56.
The same measure, in the same setting: as for AAGTTCCCTAATACAAAA, the figure is 0.85; as for AATGATTGAAGTTTCTGT, 0.73.
The sequence AATGTAGTTAGACTGGGA showed a remaining target (mRNA or protein) (fraction of control) of 0.46.
On the same count and under the same terms, as for AATTCCAATGTCTGACTT, the figure is 0.51; as for ACAATGCCTGTGGTCTTC, not below 1; as for ACACTGTAGTAACTTTCA, 0.6.

Another data set deals with MAP2K7. Particulars: ASO.
In turn, ACTCAGGTCTTCGCCATGAC came in with a remaining target (mRNA or protein) (fraction of control) of 0.76.
Still for that read-out and setting: as for ACTGTCCTGTTGCCAGCTCC, the figure is 0.58; as for AGACAAACACCTCGTGCCGA, 0.88.
The same measure, in the same setting: to AGAGCTTGATCTGGCCCCGC belongs 0.84; to AGGACGCCGCCATCTTCCCC, 0.7; to AGGCGGCACAGCCGGCGCTC, 0.95.
With AGTCCGCGGTGACTCAGGTC, the remaining target (mRNA or protein) (fraction of control) was found to be 0.87.
Same read-out and setting: as for ATGGCGATGAAGACGTCCGT, the figure is 0.84; as for CACCTCCAGCGTCTCGTAGC, 0.45.
The same measure, in the same setting: as for CAGGGAGGACGCCGCCATCT, the figure is not below 1; as for CATCTTCCCCGCCGCCACCG, 0.68; as for CCCAGGCTCCATACGTCGGC, 0.74.
On the same count and under the same terms, as for CCCCGAGAAGCCCATGTGTC, the figure is 0.69.
Take CCGCCATCTTCCCCGCCGCC: the remaining target (mRNA or protein) (fraction of control) was 0.9.
Take CGCCGCCATCTTCCCCGCCG: the remaining target (mRNA or protein) (fraction of control) was determined as 0.99.
As for CGCGCACCGCCCGGCCGCCC, the remaining target (mRNA or protein) (fraction of control) is 0.46.
Sequence CGTCAGTCCGGCAGACAAAC came in with a remaining target (mRNA or protein) (fraction of control) of 0.91.
Consider CTGAGGATGGCGAGCGGCTG, for which the remaining target (mRNA or protein) (fraction of control) is not below 1.
CTGGCTCAAGGAACGCCGTT displayed a remaining target (mRNA or protein) (fraction of control) not below 1.
Still for that read-out and setting: to CTTTAGTAAGGCAGTCTTTG belongs 0.7; to GACGCCGCCATCTTCCCCGC, 0.7; to GAGTCCACCAGGCGGCCGCT, 0.66.
GCACCACATCCAGGTCCATG: the remaining target (mRNA or protein) (fraction of control) came to 0.58.
On the same count and under the same terms, as for GCCATCTTCCCCGCCGCCAC, the figure is 0.75.
On the same count and under the same terms, to GCCGTTAGTCCGCGGTGACT belongs 0.72.
The sequence GCGGGACAGCTTCTGTTCCA displayed a remaining target (mRNA or protein) (fraction of control) not below 1.
Still for that read-out and setting: to GGAGCGCCGCATTTGCTTAA belongs 0.75; to GGAGGGCTTGACGTCGCGGT, 0.96.
Still for that read-out and setting: as for GGGAGGACGCCGCCATCTTC, the figure is 0.34; as for GGTAGTACAGCGCCTTCACA, 0.82.
Still for that read-out and setting: to GGTTGGCCGCCGGCCAAAGC belongs not below 1; to TAGCCCGTCTGCTTCATGAT, 0.76; to TCATAGTCCGGCTTGGTGGG, not below 1.
The sequence TCCAGGGAGGACGCCGCCAT registered a remaining target (mRNA or protein) (fraction of control) of 0.64.
In turn, TCCAGGTTGAGGTCGATCCT displayed a remaining target (mRNA or protein) (fraction of control) of 0.68.
TCTTCCCCGCCGCCACCGCC showed a remaining target (mRNA or protein) (fraction of control) of 0.77.
On the same count and under the same terms, to TGAACGTCCCAAAGCACTGC belongs 0.86; to TGTCATCTTGCCCAGAATGC, 0.68; to TTCCGGAAGCGCATCTTCCA, 0.86.
Sequence TTCTCCTGCTTCAGCTTTGC gave a remaining target (mRNA or protein) (fraction of control) of 0.69.
